For one series, the system named is HeLa. Put plainly: Cytotoxicity against human HeLa cells assessed as reduction in cell viability incubated for 48 hrs by MTT assay. In kind it is functional, cell-based. A general note: Formazan colour is commonly taken as a measure of viable cells.
Series [1] has as its system HepG2. The series can be described thus: Cytotoxicity against human HepG2 cells assessed as reduction in cell viability incubated for 48 hrs by MTT assay. It is filed as functional, cell-based. The settings on record: HepG2, 48 h.
Another series concerns A549. The series can be described thus: Cytotoxicity against human A549 cells assessed as reduction in cell viability incubated for 48 hrs by MTT assay. As to conditions: A549, 48 h. It is filed as functional, cell-based.
Another series deals with SMMC-7721. Put plainly: Cytotoxicity against human SMMC-7721 cells assessed as reduction in cell viability incubated for 48 hrs by MTT assay. It is filed as functional, cell-based. As to conditions: SMMC-7721, 48 h.
Series [2] can be described thus: Prodrug activation assessed as increase in fluorescence intensity in presence of GSH at 10 uM incubated for 60 mins. As to conditions: 1 h.
Series [3] in a line: Prodrug activation in TE buffer assessed as alterations in fluorescence intensity at 10 uM incubated for 60 mins. The settings on record: 1 h.
A short description of series [4]: Prodrug activation assessed as increase in ferro cytochrome c production in presence of GSH and SOD by cytochrome c reduction assay.
The nature of series [5]: Prodrug activation in TE buffer assessed as fold change in fluorescence intensity at 10 uM in presence of GSH.
A short description of series [6]: Prodrug release in TE buffer assessed as increase in camptothecin level at 10 uM measured within 10 mins in the presence of GSH by HPLC analysis. It is filed as ADME.
Series [7] can be described thus: Prodrug activation in human HepG2 cells assessed as increase in camptothecin level by measuring fluorescence level at 10 uM by fluorescence microscopy. It is filed as cell-based. The settings on record: hepg2, 10 µM, TDE = time-dependent effect, time 15-90 min.
The test system of series [8] is HepG2. The series can be described thus: Induction of ROS generation in human HepG2 cells assessed as increase in ROS accumulation for 6 hrs by DCFH-DA staining based fluorescence assay. It is filed as functional, cell-based. As to conditions: dose 2-5 µM.
For series [9], the system named is HepG2. The series can be described thus: Inhibition of redox balance in human HepG2 cells assessed as reduction in GSH/GSSG ratio incubated for 24 hrs. It is filed as functional, cell-based.
Series [10] deals with HepG2. The series can be described thus: Induction of apoptosis in human HepG2 cells assessed as increase in apoptotic cells for 48 hrs by FITC-annexin V/PI double staining based flow cytometry. In kind it is functional, cell-based. Background: In flow cytometry, cells or beads pass a laser one at a time.
The subject of series [11] is HepG2. The series can be described thus: Antitumor activity against human HepG2 cells xenografted BALB/c mouse assessed as reduction in tumor growth at 30 mg/kg, ip administered for once every 3 days measured after 15 days. It is filed as functional, organism-based. The settings on record: time 15.0 day. (In xenograft studies the graft and the host belong to different species.)

The test system of series [12] is HepG2. The series can be described thus: Inhibition of redox balance in human HepG2 cells assessed as reduction in cellular thiols incubated for 24 hrs. In kind it is functional, cell-based.
Series [13] in a line: Toxicity in human HepG2 cells xenografted BALB/c mouse assessed as reduction in body weight at 30 mg/kg, ip administered for once every 3 days measured after 15 days. As to conditions: in vivo, 360 h, time 15 day. It is filed as organism-based. More on the design: scale not given: the % may be the effect or the level left.
The nature of series [14]: Antitumor activity against human HepG2 cells xenografted BALB/c mouse assessed as reduction in tumor weight at 30 mg/kg, ip administered for once every 3 days measured after 15 days. Set-up: scale not given: the % may be the effect or the level left. In kind it is functional. The settings on record: time 15 day.
A short description of series [15]: Toxicity in BALB/c mouse xenografted with human HepG2 cells assessed as death at 45 mg/kg, ip administered for once every 3 days measured after 15 days. In kind it is organism-based. As to conditions: in vivo, 360 h, time 15 day.
Series [16] can be described thus: GSH reactivity assessed as oxidation of GSH to GSSG at 10 uM measured after 60 mins by HPLC analysis. It is filed as ADME. As to conditions: 1 h.
Series [17] is described as follows: Prodrug activation assessed as changes in fluorescence intensity in presence of GSH at 100 uM incubated for 12 hrs further incubated with selenol probe Probe 1.
Series [18] can be described thus: Prodrug activation assessed as fluorescence intensity in presence of 5 mM GSH at 100 uM incubated for 12 hrs further incubated with selenol probe Probe 1 followed by addition of 1 mM GSH measured after 4 mins. The settings on record: 5000 µM.
Series [19] in a line: Prodrug activation assessed as production of selenol intermediate concentration in the presence of GSH incubated with Probe 1.
The nature of series [20]: Prodrug activation assessed as increase in fluorescence intensity in presence of Cys at 10 uM incubated for 15 mins by HPLC analysis. The settings on record: 0.25 h.
Series [21] in a line: Drug uptake in human HepG2 cells increase in fluorescence level at 10 uM by fluorescence microscopy. It is filed as ADME, cell-based. The settings on record: hepg2, 10 µM, TDE = time-dependent effect.
Series [22] has as its system HepG2. The series can be described thus: Cytotoxicity against human HepG2 cells assessed as reduction in cell viability in presence of H2O2 incubated for 48 hrs by MTT assay. In kind it is functional, cell-based.

Each structure is given as a SMILES string. The source made the active and inactive calls. The calls are words filed in the database; no cut-off is given here.

One may read the IC50 as the midpoint of a concentration-inhibition curve. For `CC[C@@]1(OC(=O)OC2(CO)C[Se][Se]C2)C(=O)OCc2c1cc1n(c2=O)Cc2cc3ccccc3nc2-1`, the IC50 with HeLa is 9.17 µM; in the series with HepG2 [1], 6.02 µM; with A549 it was > 10 µM; in the series on SMMC-7721 it was > 10 µM. Also, the Drug metabolism result in [2] is “Metabolite_Detected”; in [3] it was “Metabolite_Notdetected”.
With `CC[C@@]1(OC(=O)NC2CCCC2)C(=O)OCc2c1cc1n(c2=O)Cc2cc3ccccc3nc2-1`, the IC50 in the series with HeLa, with HepG2 [1], in the series with A549 and in the series on SMMC-7721 was > 10 µM each time.
With `CC[C@@]1(OC(=O)OCC[Se][Se]CCO)C(=O)OCc2c1cc1n(c2=O)Cc2cc3ccccc3nc2-1`, the Drug metabolism result in series [4] was “Not Active”; in [7] it was “Tde”; in series [16] it was “Metabolite_Detected”; in series [18], “Metabolite_Detected”; in series [19], 104.4 µM; in series [3] it was “Metabolite_Notdetected”. For the same compound, the Drug metabolism entry in [20] is recorded as “Metabolite_Detected”. Moreover, the IC50 was found to be 2.56 µM with HeLa, 2.54 µM with HepG2 [1], 3.3 µM with A549 and 6.4 µM with SMMC-7721. Further, in [5], the “fold change (FC)” value turned out to be 10. Moreover, the Activity is listed as 90% in series [6]; < 10% in series [13]; 75% in series [14]; “Toxic” in series [15]; “Not Active” in series [17]. In addition, the outcome in the series with HepG2 [8], with HepG2 [10] and in the series on HepG2 [11] was Active. Moreover, the inhibition entry with HepG2 [9] and in the series with HepG2 [12] was “Active” each time.
Take `CC[C@@]1(OC(=O)OCCSSCCO)C(=O)OCc2c1cc1n(c2=O)Cc2cc3ccccc3nc2-1`: the IC50 in the series on HeLa was 9.62 µM; with HepG2 [1], 4.86 µM; in the series with A549 it was > 10 µM; in the series on SMMC-7721, > 10 µM. Moreover, in series [6], the Drug metabolism entry is “Metabolite_Notdetected”.
As to `CC[C@@]1(O)C(=O)OCc2c1cc1n(c2=O)Cc2cc3ccccc3nc2-1` [CAMPTOTHECIN], the IC50 in the series on HeLa is 8.28 µM; in the series with HepG2 [1], 3.5 µM; with SMMC-7721, > 10 µM. Also, the result with HepG2 [11] and in the series with HepG2 [22] was Active. The Activity in series [13] is < 10%; in series [14] it was 53%; in [15], “Toxic”. The Drug uptake result in [21] was “Tde”.
In the case of `CC[C@@]1(OC(=O)NC2C[Se][Se]C2)C(=O)OCc2c1cc1n(c2=O)Cc2cc3ccccc3nc2-1`, the IC50 in the series on HeLa, in the series on HepG2 [1], in the series with A549 and in the series with SMMC-7721 was > 10 µM in each case. For the same compound, the Drug metabolism entry in series [2] and in [3] was “Metabolite_Notdetected” throughout.
Turning to `CC[C@@]1(OC(=O)OCCCCCCO)C(=O)OCc2c1cc1n(c2=O)Cc2cc3ccccc3nc2-1`, the IC50 in the series on HeLa, in the series on HepG2 [1], in the series with A549 and in the series on SMMC-7721 was > 10 µM in each case.
On to `CC[C@@]1(OC(=O)OC2CCCC2)C(=O)OCc2c1cc1n(c2=O)Cc2cc3ccccc3nc2-1`, for which the IC50 in the series on HeLa, with HepG2 [1], with A549 and in the series with SMMC-7721 was > 10 µM throughout.

The record behind these values is ChEMBL document CHEMBL5029187 (J Med Chem, 2021).
